We go through 3 molecules from patent US8546338B2, “Self-assembling hydrogels based on dicephalic peptide amphiphiles” (Johnson & Johnson Consumer Companies, Inc., priority 2010, dated 2013).

Common to all, as to assay type: physicochemical
Data set [1] is described as follows: Dissolution of DPA in ultrapure water. To be noted: ultrapure water (>18 MΩ resistivity). The method, then:
(§1) Inversion tests were performed to determine qualitatively under which conditions the various DPAs formed self-supporting hydrogels. The various types of DPAs were tested by dissolving them in ultrapure water (>18 MΩ resistivity) at double the desired final concentration followed by mixing in a 1:1 ratio with different liquid mediums. Gelation was deemed to have occurred if the gel supported its own weight upon inverting the vial (FIG. 3A and FIG. 3B). Gelation was tested at final concentrations of 1, 2 and 4 weight percent. We tested phosphate buffered saline (PBS), and Dulbecco's modified eagle media (DMEM) as liquid medium. Typical scale is 100 μl each of DPA solution in water and mixing medium but other scales have been tested. Finally, if no spontaneous gelation occurs, 10 μl of 100 mg/cc calcium chloride solution was added to induce gelation.

The nature of data set [2]: Titration of DPA acid groups with calcium ions. To be noted: calcium titrated down from 16 to 1 equivalent by halving. The source says: The […] (SEQ ID NO: 3) DPA was titrated with calcium ions to determine the number of acid groups that required ion complexation in order for gelation to occur. Theoretically, there are eight acid groups (four per head group) that could be involved in the gelation process (FIG. 4).

The nature of data set [3]: Gelation experiments: inversion test for self-supporting hydrogels. How it is done: as §1

Regarding `CCCCCCCCCCCCCCCC(=O)NC(C(=O)N[C@@H](Cc1ccccc1)C(=O)NCC(=O)N[C@@H](Cc1ccccc1)C(=O)NCC(=O)N[C@@H](Cc1ccccc1)C(=O)NCC(=O)N[C@@H](CCCCN)C(=O)N[C@@H](C)C(=O)O)C(=O)N[C@@H](Cc1ccccc1)C(=O)NCC(=O)N[C@@H](Cc1ccccc1)C(=O)NCC(=O)N[C@@H](Cc1ccccc1)C(=O)NCC(=O)N[C@@H](CCCCN)C(=O)N[C@@H](C)C(=O)O` [Phe-Gly-Phe-Gly-Phe-Gly-Lys-Ala], the “Solubility in ultrapure water” value in data set [1] is on record as “could not be solubilized”.
As for `CCCCCCCCCCCCCCCC(=O)NC(C(=O)N[C@H](C(=O)N[C@@H](C)C(=O)N[C@H](C(=O)N[C@@H](C)C(=O)N[C@H](C(=O)N[C@@H](C)C(=O)N[C@@H](CCCCN)C(=O)N[C@@H](C)C(=O)O)C(C)C)C(C)C)C(C)C)C(=O)N[C@H](C(=O)N[C@@H](C)C(=O)N[C@H](C(=O)N[C@@H](C)C(=O)N[C@H](C(=O)N[C@@H](C)C(=O)N[C@@H](CCCCN)C(=O)N[C@@H](C)C(=O)O)C(C)C)C(C)C)C(C)C` [Val-Ala-Val-Ala-Val-Ala-Lys-Ala], the “Solubility in ultrapure water” value in data set [1] is “could not be solubilized”.
On to `CCCCCCCCCCCCCCCC(=O)NC(C(=O)N[C@H](C(=O)N[C@@H](C)C(=O)N[C@H](C(=O)N[C@@H](C)C(=O)N[C@H](C(=O)N[C@@H](C)C(=O)N[C@@H](CCC(=O)O)C(=O)N[C@@H](CCC(=O)O)C(=O)N[C@@H](CCC(=O)O)C(=O)O)C(C)C)C(C)C)C(C)C)C(=O)N[C@H](C(=O)N[C@@H](C)C(=O)N[C@H](C(=O)N[C@@H](C)C(=O)N[C@H](C(=O)N[C@@H](C)C(=O)N[C@@H](CCC(=O)O)C(=O)N[C@@H](CCC(=O)O)C(=O)N[C@@H](CCC(=O)O)C(=O)O)C(C)C)C(C)C)C(C)C` [Val-Ala-Val-Ala-Val-Ala-Glu-Glu-Glu], for which, in data set [2], the “Transition point between stable gel formation and no or weak gel formation” value is “between two and one equivalent of calcium”. Moreover, the “Gelation (self-supporting gel on inversion), Calcium added” value in data set [3] (DMEM plus 10 μl of 100 mg/cc calcium chloride solution) is reported as “Yes”. The “Concentration at which gel forms, Calcium added” value in data set [3] (DMEM with calcium chloride added) was 2 wt %. For the same molecule, in data set [3] (DPA solution in water mixed 1:1 with DMEM, no calcium added), the “Gelation (self-supporting gel on inversion), DMEM” value was “No”. Also, the “Minimal concentration at which gel formed” value in data set [3] (in DMEM with calcium added) was 2 weight percent. Further, the “Gelation (self-supporting gel on inversion), Water” value in data set [3] (in water, final concentrations 1, 2 and 4 weight percent tested) is recorded as “No”.
